Here are results for 53 compounds from patent publication US20180111913A1, “SUBSTITUTED BENZOFURAN DERIVATIVES AS NOVEL ANTIMYCOBACTERIAL AGENTS” (priority 2015, published 2018).

The target of this experiment is Mtb Pks13-TE domain (wild-type) (Mycobacterium tuberculosis, UniProt I6X8D2). Nature of the experiment: biochemical. The format is biochemical.
Where [1] appears, read: Pks13-TE, 20 μM 4-MUH, read-out: IC50.

Like-named read-outs stand apart in the source and are kept apart here.

Chain of Mtb Pks13-TE domain (wild-type) (I6X8D2 1451-1733): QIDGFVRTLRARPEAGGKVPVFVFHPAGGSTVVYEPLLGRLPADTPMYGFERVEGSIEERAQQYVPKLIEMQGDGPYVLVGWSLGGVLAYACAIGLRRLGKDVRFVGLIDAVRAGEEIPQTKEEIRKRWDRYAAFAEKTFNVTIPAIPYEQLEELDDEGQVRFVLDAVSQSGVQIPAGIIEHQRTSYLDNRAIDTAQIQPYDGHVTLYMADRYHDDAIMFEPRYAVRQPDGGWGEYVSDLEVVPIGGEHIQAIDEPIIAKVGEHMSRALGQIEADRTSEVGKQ

For `CCOC(=O)c1c(-c2ccccc2)oc2ccc(O)c(CCN3CCC(CCCCO)C3)c12` (stereo not drawn) [compound 178], the IC50 under setting [1] stood at 2 µM.

On to `CNC(=O)c1c(-c2ccc(F)cc2)oc2cc(O)cc(CCN[C@@H](Cc3ccco3)C(=O)O)c12` [compound 262], for which the IC50 under setting [1] is greater than 40 µM.

As to `CNC(=O)c1c(-c2ccccc2)oc2ccc(O)c(CCN3CCCCC3C(F)(F)F)c12` (stereo not drawn) [compound 237], the IC50 under setting [1] was greater than 20 µM.

With `CNC(=O)c1c(-c2ccccc2)oc2ccc(O)c(CCN3CCN(CCO)CC3)c12` [compound 157], under setting [1], the IC50 is greater than 40 µM.

Consider `CNC(=O)c1c(-c2ccccc2)oc2ccc(O)c(CCCNCC(C)c3ncco3)c12` (stereo not drawn) [compound 196], for which the IC50 under setting [1] was greater than 20 µM.

For the compound `CCOC(=O)c1c(-c2ccccc2)oc2ccc(OC)c(CC3CCCCC3)c12` [compound 15], the IC50 (Pks13-TE, read-out: IC50 (μM), given as NB / NI) was greater than 20 µM.

With `CCOC(=O)c1c(-c2ccccc2)oc2ccc(O)c(CCCN3CCC[C@H]3C)c12` [compound 180], the IC50 under setting [1] was determined as 1.9 µM.

On to `CNC(=O)c1c(-c2ccccc2)oc2ccc(O)c(CCN3CC(CO)(CBr)C3)c12` [compound 257], for which the IC50 under setting [1] was determined as 1.25 µM.

As to `CCOC(=O)c1c(-c2ccccc2)oc2ccc(O)c(CCCN3CCCC(CO)C3)c12` (stereo not drawn) [compound 169], the IC50 under setting [1] is greater than 40 µM.

Consider `CCOC(=O)c1c(-c2ccccc2)oc2ccc(O)c(CCN3CC(C#N)C3)c12` [compound 227], for which the IC50 under setting [1] was greater than 20 µM.

Consider `CNC(=O)c1c(-c2ccccc2)oc2cc(O)cc(CN3CCC(O)CC3)c12` [compound 68], for which the IC50 under setting [1] is greater than 20 µM.

`CNC(=O)c1c(-c2ccccc2)oc2ccc(O)c(CCCN3CC(O)C(O)C3)c12` (stereo not drawn) [compound 163]: the IC50 under setting [1] is greater than 40 µM.

Take `CCOC(=O)c1c(-c2ccccc2)oc2ccc(O)c(CCCN3CCCC3CCO)c12` (stereo not drawn) [compound 170]: the IC50 under setting [1] worked out at 4.3 µM.

Take `CCOC(=O)c1c(-c2ccc(F)cc2)oc2cc(O)cc(CCNC3CCC(O)CC3)c12` (stereo not drawn) [compound 225]: the IC50 under setting [1] was greater than 40 µM.

With `CCOC(=O)c1c(-c2ccccc2)oc2ccc(O)c(CCNC(C(=O)O)C(F)(F)F)c12` (stereo not drawn) [compound 247], the IC50 under setting [1] is greater than 40 µM.

In the case of `CCOC(=O)c1c(-c2ccccc2)oc2ccc(O)c(CCCC3CCCC3)c12` [compound 236], under setting [1], the IC50 was greater than 10 µM.

For `CCOC(=O)c1c(-c2ccccc2)oc2ccc(O)c(CCN3[C@H](C)CCC[C@@H]3C)c12` [compound 150], the IC50 under setting [1] is greater than 40 µM.

Turning to `CCOC(=O)c1c(-c2ccccc2)oc2ccc(O)c(CCC3CCNCC3)c12` [compound 176], the IC50 under setting [1] is greater than 40 µM.

For `CNC(=O)c1c(-c2ccccc2)oc2ccc(O)c(CCCN3CCC4(CC3)CC(=O)C4)c12` [compound 207], under setting [1], the IC50 came to 10 µM.

As for `CNC(=O)c1c(-c2ccccc2)oc2ccc(O)c(CCN3CCCCC3CCO)c12` (stereo not drawn) [compound 156], the IC50 under setting [1] is greater than 40 µM.

Turning to `CC(C)NCCc1cc(O)cc2oc(-c3ccc(F)cc3)c(CO)c12` [compound 76], the IC50 under setting [1] was greater than 20 µM.

Turning to `CCOC(=O)c1c(-c2ccc(F)cc2)oc2cc(O)cc(CCNCCN)c12` [compound 80], the IC50 under setting [1] is greater than 40 µM.

In the case of `CCOC(=O)c1c(-c2ccccc2)oc2ccc(O)c(CCN3CCC(CCCC(N)=O)C3)c12` (stereo not drawn) [compound 187], under setting [1], the IC50 came to 0.5 µM.

Consider `CNC(=O)c1c(-c2ccccc2)oc2ccc(O)c(CCN[C@@H](Cc3cnc[nH]3)C(=O)NC)c12` [compound 259], for which, under setting [1], the IC50 is 1 µM.

Regarding `CNC(=O)c1c(-c2ccccc2)oc2ccc(O)c(CCN3CCC(C(F)(F)F)CC3)c12` [compound 232], under setting [1], the IC50 was greater than 20 µM.

For the compound `CCOC(=O)c1c(-c2ccccc2)oc2ccc(O)c(CN3CCC(F)(F)CC3)c12` [compound 119], the IC50 under setting [1] came out at 0.8 µM.

On to `CNC(=O)c1c(-c2ccccc2)oc2ccc(O)c(CCCN3CCC3)c12` [compound 271], for which the IC50 under setting [1] amounted to 7 µM.

As for `CNC(=O)c1c(-c2ccccc2)oc2ccc(O)c(CCNc3ccccc3)c12` [compound 144], under setting [1], the IC50 is greater than 40 µM.

Take `CNC(=O)c1c(-c2ccccc2)oc2ccc(O)c(CCN3CCC(O)CC3)c12` [compound 152]: the IC50 under setting [1] is greater than 40 µM.

With `CNC(=O)c1c(-c2ccccc2)oc2ccc(O)c(CCN3CCC(CO)(CBr)C3)c12` (stereo not drawn) [compound 258], the IC50 under setting [1] amounted to 2.5 µM.

`CNC(=O)c1c(-c2ccccc2)oc2ccc(O)c(CCC3CCOC3=O)c12` (stereo not drawn) [compound 240]: the IC50 under setting [1] was greater than 40 µM.

For `CNC(=O)c1c(-c2ccccc2)oc2ccc(O)c(CCN(C(C)C)C(C)C)c12` [compound 140], the IC50 under setting [1] was greater than 40 µM.

For the compound `CCOC(=O)c1c(-c2ccc(F)cc2)oc2cc(O)cc(CCN)c12` [compound 242], the IC50 under setting [1] was greater than 20 µM.

Consider `CNC(=O)c1c(-c2ccccc2)oc2ccc(O)c(CCN3CCCC(CO)C3)c12` (stereo not drawn) [compound 154], for which, under setting [1], the IC50 is greater than 20 µM.

For the compound `CNC(=O)c1c(-c2ccccc2)oc2ccc(O)c(CCN3CCCCC3)c12` [compound 143], the IC50 under setting [1] is greater than 20 µM.

`CNC(=O)c1c(-c2ccccc2)oc2ccc(O)c(CCNCC3CCCO3)c12` (stereo not drawn) [compound 252]: the IC50 under setting [1] was 1.6 µM.

For `CNC(=O)c1c(-c2ccccc2)oc2ccc(O)c(CCN3CCNC(=O)C3)c12` [compound 139], under setting [1], the IC50 is greater than 40 µM.

Consider `CCOC(=O)c1c(-c2ccccc2)oc2ccc(O)c(CCCN3CCCC3C/C=C/C(=O)NC)c12` (stereo not drawn) [compound 181], for which the IC50 under setting [1] worked out at 2.5 µM.

`CCOC(=O)c1c(-c2ccc(F)cc2)oc2cc(O)cc(CCNC(=O)C(C)N)c12` (stereo not drawn) [compound 81]: the IC50 under setting [1] is greater than 40 µM.

With `CCOC(=O)c1c(-c2ccccc2)oc2ccc(O)c(CCNC(CO)Cc3cnc[nH]3)c12` (stereo not drawn) [compound 256], under setting [1], the IC50 stood at 1.5 µM.

As to `CNC(=O)c1c(-c2ccccc2)oc2ccc(O)c(CCN3CCS(=O)(=O)CC3)c12` [compound 138], the IC50 under setting [1] was greater than 40 µM.

Regarding `CCOC(=O)c1c(-c2ccc(F)cc2)oc2cc(O)cc(CC[N+](C)(C)C)c12` [compound 75], the IC50 under setting [1] was greater than 20 µM.

As to `CNC(=O)c1c(-c2ccccc2)oc2ccc(O)c(CCN3CCCC(C(F)(F)F)C3)c12` (stereo not drawn) [compound 233], the IC50 under setting [1] is greater than 10 µM.

As for `CNC(=O)c1c(-c2ccccc2)oc2ccc(O)c(CCN3CCCCC3CO)c12` (stereo not drawn) [compound 155], under setting [1], the IC50 is greater than 40 µM.

As to `CCOC(=O)c1c(-c2ccccc2)oc2ccc(O)c(CCNC3CCOC3)c12` (stereo not drawn) [compound 254], the IC50 under setting [1] was determined as 2.7 µM.

Turning to `CNC(=O)c1c(-c2ccccc2)oc2ccc(O)c(CCN[C@@H](Cc3cnc[nH]3)C(=O)OC)c12` [compound 250], the IC50 under setting [1] worked out at 2.4 µM.

For the compound `CCOC(=O)c1c(-c2ccccc2)oc2ccc(O)c(CCCN3CCSC3)c12` [compound 173], under setting [1], the IC50 was 5 µM.

With `CNC(=O)c1c(-c2ccccc2)oc2ccc(O)c(CCCNCc3ncco3)c12` [compound 190], the IC50 under setting [1] is greater than 40 µM.

As for `CCOC(=O)c1c(-c2ccccc2)oc2ccc(O)c(CCN3CC4COCC4C3)c12` (stereo not drawn) [compound 266], under setting [1], the IC50 worked out at 10 µM.

Turning to `CCOC(=O)c1c(-c2ccccc2)oc2ccc(O)c(CCCNCc3ccoc3)c12` [compound 255], under setting [1], the IC50 worked out at 2.1 µM.

`CNC(=O)c1c(-c2ccccc2)oc2ccc(O)c(CCNC3CCCCC3)c12` [compound 145]: the IC50 under setting [1] turned out to be 10 µM.

Take `CCOC(=O)c1c(-c2ccc(O)cc2)oc2ccc(O)c(CN3CCCCC3)c12` [compound 22]: the IC50 was found to be 0.17 ± 0.02 µM (Mtb Pks13-TE domain, mean ± s.d. of triplicates, read-out: IC50) and 0.19 µM under setting [1].

In the case of `CN(C)C(=O)c1c(-c2ccc(O)cc2)oc2cc(O)cc(CCCN3CCC3)c12` [compound 208], the IC50 under setting [1] amounted to 4 µM.
